Results on one compound are retold here after US20230295436A1, “INTERMOLECULARLY-FABRICATED COMPOSITION FOR ENCAPSULATING PLANT MATERIALS, AGROCHEMICALS AND PHARMACEUTICALS” (University of Central Florida Research Foundation, Inc., priority 2022, published 2023).

Data set [1] is described as follows: Dynamic light scattering (hydrodynamic size, PDI). It counts as physicochemical. The note with it: optimized formulations and controls, Table 1. The text has this: (§1) Malvern Zetasizer Nano ZS90 was used to study the hydrodynamic size, surface charge, and polydispersity index (PDI) of the NPs. Agilent Cary 300 Bio UV-Vis spectrophotometer was used to measure the absorbance of materials across the UV-Visible spectrum. Spectronic 200 spectrophotometer was used to carry out the degradation and release rate studies. Samples were freeze-dried using a Labconco lyophilizer. Shimadzu IRSpirit with QATR-S was used to obtain
(§2) DLS and ZP measurements were done using a Malvern Zetasizer ZS90 to determine the samples' hydrodynamic size and surface charge, respectively. The samples were diluted to approximately 200 ppm of curcumin to obtain 100 to 1000 kilo counts per second (kcps). Samples were added into the appropriate cuvettes for DLS and ZP readings.

A short description of data set [2]: Zeta potential (surface charge). The conditions noted are these: optimized formulations and controls, Table 1. In kind it is physicochemical.
Description: as §1, §2

Data set [3] is described as follows: Degradation rate of curcumin in aqueous solution. It counts as physicochemical. On the procedure: The degradation rate of Cur-TA-PVP NPs and free curcumin was determined by measuring the peak absorbance over time as this can be correlated to the concentration in solution. […] Absorbance readings of samples were acquired at 425 nm every 60 minutes for 24 hours. Degradation rate equations were determined based on the trendlines that provide an R2 of 0.95 or greater. Simple linear regressions were also performed to compare the slopes of the degradation curves to determine if the difference was statistically significant.

In data set [4] the test system is S16 Rat Schwann Cells. The data set can be described thus: AlamarBlue viability assay, S16. In kind it is cell-based. The conditions noted are these: S16 RSCs, 24 hours, 0 to 80 μM curcumin. The protocol:
The viability of cells when treated with Cur-TA-PVP, TA-PVP, or free curcumin was assessed to determine the therapeutic window of treatments. This was done by performing an alamarBlue (resazurin) assay according to the manufacturer's instructions. The cell types assessed were models for those involved in PNI and subsequent PNR: S16 rat Schwann cells (RSCs), J744 murine macrophages, and SH-SY5Y cells (neuronal cell line). SH-SY5Y cells were cultured in DMEM/F12 supplemented with 10% FBS and 1% penicillin/streptomycin, whereas the J744 macrophages and S16 RSCs were cultured in DMEM supplemented with 10% FBS and 1% streptomycin/penicillin.
First, cells (n=3) were seeded in 96 well plates at a density of 10^4 cells per well and incubated overnight in a humidified atmosphere at 37° C. and 5% CO2. Cur-TA-PVP and free curcumin were then introduced into the wells at a concentration range of 0 to 80 μM curcumin. In the case of TA-PVP, the concentration range was equivalent to TA and PVP concentrations in the Cur-TA-PVP NPs. The plates were incubated for 24 hours, and the media containing treatments was then removed and fresh media with 10% 0.15 mg/mL resazurin was added into all wells. The plates were incubated for 2 hours, and the fluorescence was read using a Tecan plate reader at an ex/em of 560/590 nm. The cell viability was calculated using the following equation.
On the technique in general: The colour change of resazurin is a common sign of viable cells or microbes.

Data set [5] has as its system SH-SY5Y cells. As to the kind of experiment: H2O2-induced oxidative stress and cell viability, SH-SY5Y. In kind it is cell-based. The conditions noted are these: 6 hours pre-treatment, 50 μM H2O2 for 18 hours. On the procedure: The potential for Cur-TA-PVP, TA-PVP, or free curcumin to rescue cells from oxidative damage induced by H2O2 was assessed to determine the antioxidant activity of the treatments in cells. The assay was performed according to a previously published protocol by Mahakunakorn et al. [Mahakunakorn, P., et al., Cytoprotective and cytotoxic effects of curcumin: dual action on H2O2-induced oxidative cell damage in NG108-15 cells. Biol Pharm Bull, 2003. 26(5): p. 725-8.]. Briefly, SH-SY5Y cells and J744 murine macrophages were each seeded in 96 well plates (n=3) and incubated overnight at 37° C. and 5% CO2. Cells were then pre-treated with fresh media containing treatments for 6 hours, and then with fresh media containing 100 μM H2O2 (J774) or 50 μM (SH-SY5Y) for another 18 hours. The media was then replaced with complete media containing 10% of 0.15 mg/mL resazurin. The cells were incubated for 2 hours, and the fluorescence was read at an ex/em of 560/590 nm. The cell viability was determined using the equation noted in section 10.3.1.

Data set [6] is described as follows: Appearance / colloidal stability in water. In kind it is physicochemical. The conditions noted are these: aqueous solution. The text has this: Biochim Biophys Acta, 2008. 1780(4): p. 673-9.]. Curcumin directly interacts with or leads to the upregulation of many intracellular proteins involved in anti-inflammation, antioxidant, neuroprotective, and re-myelination pathways [Caillaud, M., et al., Key Developments in the Potential of Curcumin for the Treatment of Peripheral Neuropathies. Antioxidants (Basel), 2020. 9(10).]. Thus, the therapeutic potential of free curcumin is lowered by its propensity to reside in the lipid bilayer. Since the TA-PVP carrier improves the stability of curcumin in water, it is therefore expected that this would enhance its availability within the cytoplasm of cells to reach or upregulate targets involved in achieving successful PNR. The NP formulation dramatically increases the colloidal stability of curcumin compared to its free form alone in the aqueous solution.

For data set [7] the following is noted: cited from earlier work.

Each structure is given as a SMILES string. In brackets after ≈: the same amount, converted by molar mass.

Turning to `COc1cc(/C=C/C(=O)CC(=O)/C=C/c2ccc(O)c(OC)c2)ccc1O` [Free Curcumin, curcumin], in data set [1], the “Polydispersity Index (PDI)” value was determined as 0.578 and the Z-ave was determined as 328 nm·days. The “Zeta Potential” value in data set [2] is −13 mV. The “slope of degradation curve (simple linear regression)” value in data set [3] (40 μM in water, absorbance at 425 nm every 60 minutes for 24 hours) was −0.01123. In addition, the “curcumin remaining in its viable form” value in data set [3] (after 24 hours of dispersion in PBS) is “about 60%”. Besides, in data set [4], the “cell viability compared to other treatment groups” value is recorded as “higher cell viability than the other treatment groups at all concentrations”. For the same compound, the “protection against H2O2-induced oxidative stress (cell rescue)” value in data set [5] is listed as “no cell rescue”. For the same compound, the “colloidal stability in water (appearance)” value in data set [6] was “precipitate and sink to the bottom of the vial”. Moreover, the water solubility in data set [7] was 100 µg/mL (≈ 271 µM).
